Measured values from patent US12611394B2, “Use of ginkgolide a in the treatment of autism” (CENTER FOR EXCELLENCE IN MOLECULAR CELL SCIENCE, CHINESE …, priority 2019, dated 2026).

Experiments:
Format in all cases: in vivo, mouse
[1] = tested on: heterozygous mutant mice carrying NR2F1 gene point mutation; assay: Three-box experiment (sociability and social novelty test) after administration of ginkgolide A; settings: mutant (+/m) mice, gavage 2 mg/kg once a day, 7-8 weeks after birth, tested at 8 weeks; FIG. 11
Procedure: a. Experimenter A entered the behavior room one hour before the experiment, took out a cage (four) of the experimental mice placed in the next room and placed them in the behavior room 1 hour. Meanwhile, the two mice needed in the experiment (note that the mice used here and the experimental mice cannot be in the same nest, and the sex should be the same) were placed in the behavior room 1 hour. Turn on the light to adapt it to the environment; b. Experimenter A started to clean the three boxes of equipment used in the experiment about half an hour before the experiment, sprayed the 30% alcohol on all parts of the three boxes, wiped gently with a white cloth, and then wiped dry with a new clean white cloth. Then two cages and two objects were washed. And the cloth used to block personnel and the experimental area was put up. c. At the same time, experimenter B began to debug the computer operating software: open the three-box experimental program and confirm whether the positions of the three boxes coincide with the position divided by the software. If not, please assist experimenter A in adjusting. […] After everything was ready, in the first round of the experiment, experimenter A put identical objects in areas 2 and 3, such as bottle caps. […] 5 min later, the experiment was ready to start. […] The experiment lasted 10 min, and the software recorded the time and distance of mice in each area. […]

[2] = tested on: heterozygous mutant mice carrying NR2F1 gene point mutation; assay: Self-grooming experiment after administration of ginkgolide A; settings: mutant (+/m) mice, gavage 2 mg/kg once a day, 7-8 weeks after birth, tested at 8 weeks; FIG. 12
Procedure: The experimental mice were placed in a feeding cage with the bottom covered with feed and the height was no more than 1 cm. The time of grooming behavior in mice in 10 minutes was recorded. The grooming position includes face, head, neck, ears, etc. Subsequent self-grooming experiments were conducted to detect repetitive stereotyped behaviors. […] Ginkgolide A was administered to heterozygous mutant mice. The detailed administration scheme was as follows: the administration method was gavage treatment, the concentration of ginkgolide A was 2 mg/kg, the administration time is 7-8 weeks after the birth of mutant mice, and the administration frequency was once a day.

[3] = tested on: heterozygous mutant mice carrying NR2F1 gene point mutation; assay: Elevated-plus maze experiment after administration of ginkgolide A; settings: mutant (+/m) mice, gavage 2 mg/kg once a day, 7-8 weeks after birth, tested at 8 weeks; FIG. 13
Procedure: The related anxiety state of mice were investigated by using the characteristics that mice like to explore in the new environment and the contradictory behavior of fear of heights with open arms at heights. In order to increase the total number of mice entering the arm and avoid hiding in the closed arm, the animals were usually placed in an open environment for 5 minutes and then placed in the maze. Similarly, the mice were placed in a room with an elevated experimental device to adapt to the environment one hour before the start of the experiment, with the red light turned on, and the room temperature was kept at 25° C. At the beginning of the experiment, hold the mouse into the palm of the hand, place it in the middle of the cross facing the closed arm, and quickly leave this room. Then another person started recording and tracking the activity movement of the mouse in another room. In the process, the times of the experimental mouse entering the open arm and the closed arm was counted, and the time of staying in the open arm and the closed arm was counted respectively; after the whole process was recorded for 5 minutes for the experiment, the mice were gently stroked, and put back into the cage. The elevated-plus table was cleaned with 70% alcohol for the experiment of the next mouse. The elevated-plus experiment is mainly used to detect the anxiety behavior of mice. […]

## C[C@@H]1C(=O)O[C@H]2C[C@@]34[C@H]5C[C@@H](C(C)(C)C)[C@]36[C@@H](OC(=O)[C@@H]6O)O[C@@]4(C(=O)O5)[C@]21O [ginkgolide A]
[1]
  time of interaction with similar mice (sociability): significantly increased
  time of interaction with unfamiliar mice (social novelty): significantly increased
[2]
  self-grooming time: significantly reduced
[3]
  time to explore the open arm: increased significantly
